Earlier results, collected in patent US6605639B1, “Ligands of nuclear receptor” (Nuclear Receptor Research, Ltd., priority 1998, dated 2003).

Legend:
[1] = system: hereditary obese diabetic mice ob/ob and db/db; conditions: oral; cited from earlier work
patients = conditions: at the normal dose; cited from earlier work

| Compound | blood glucose levels, serum neutral fat levels and serum insulin levels [1] | patients with hepatopathy (patients) |
| --- | --- | --- |
| C=C(c1ccc(C(=O)O)cc1)c1cc2c(cc1C)C(C)(C)CCC2(C)C [LGD1069] | drastically lower | – |
| Cc1c(C)c2c(c(C)c1O)CCC(C)(COc1ccc(CC3SC(=O)NC3=O)cc1)O2 (centres unmarked) [troglitazone] | – | about 2% |
